Data as given in the NIST ThermoML archive (doi:10.1016/j.jct.2019.02.019).

Experiment: xn = mol fraction of the nth substance listed
Conditions: 101 kPa, Liquid; for viscosity: Capillary tube (Ostwald / Ubbelohde) method; for mass density: Vibrating tube method

NCCO [2-aminoethan-1-ol] + CCO
Conditions | mass density, 293.15 K [kg/m3] | mass density, 303.15 K [kg/m3] | mass density, 313.15 K [kg/m3] | mass density, 323.15 K [kg/m3] | viscosity, 293.15 K [mPa·s] | viscosity, 303.15 K [mPa·s] | viscosity, 313.15 K [mPa·s] | viscosity, 323.15 K [mPa·s]
x1 = 0.1002 | 816.84 | 808.87 | 799.33 | 791.69 | 1.56 | 1.27 | 1.05 | 0.87
x1 = 0.1999 | 843.68 | 834.94 | 825.34 | 817.35 | 2.12 | 1.68 | 1.36 | 1.11
x1 = 0.3002 | 868.92 | 860.42 | 850.66 | 842.49 | 2.89 | 2.23 | 1.77 | 1.42
x1 = 0.4004 | 893.15 | 884.54 | 874.69 | 866.58 | 3.96 | 2.98 | 2.29 | 1.8
x1 = 0.5 | 916.18 | 907.59 | 897.82 | 889.61 | 5.44 | 3.96 | 2.95 | 2.28
x1 = 0.5998 | 938.02 | 929.38 | 919.84 | 911.88 | 7.45 | 5.23 | 3.8 | 2.87
x1 = 0.7 | 959.13 | 950.81 | 941.56 | 933.03 | 10.19 | 6.92 | 4.87 | 3.6
x1 = 0.7996 | 978.96 | 970.81 | 961.95 | 953.82 | 13.74 | 9.05 | 6.17 | 4.48
x1 = 0.8994 | 998.41 | 989.98 | 981.44 | 973.33 | 18.22 | 11.74 | 7.74 | 5.48
x1 = 1 | 1016.3 | 1008.02 | 999.98 | 991.97 | 23.4 | 14.71 | 9.77 | 6.83

CN(CCO)CCO [N-methyldiethanolamine] + CCO
Conditions | mass density, 293.15 K [kg/m3] | mass density, 303.15 K [kg/m3] | mass density, 313.15 K [kg/m3] | mass density, 323.15 K [kg/m3] | viscosity, 293.15 K [mPa·s] | viscosity, 303.15 K [mPa·s] | viscosity, 313.15 K [mPa·s] | viscosity, 323.15 K [mPa·s]
x1 = 0.1003 | 838.89 | 830.03 | 820.48 | 812.93 | 1.95 | 1.54 | 1.27 | 1.03
x1 = 0.2001 | 879.56 | 869.79 | 860.28 | 852.57 | 3.25 | 2.45 | 1.94 | 1.52
x1 = 0.3001 | 913.83 | 903.04 | 893.56 | 885.65 | 5.36 | 3.88 | 2.95 | 2.25
x1 = 0.3998 | 941.42 | 930.67 | 921.43 | 913.45 | 8.77 | 6.08 | 4.5 | 3.32
x1 = 0.5 | 964.94 | 954.51 | 945.44 | 937.39 | 14.09 | 9.41 | 6.64 | 4.79
x1 = 0.5999 | 984.81 | 974.63 | 965.86 | 957.92 | 21.94 | 14.14 | 9.68 | 6.79
x1 = 0.7 | 1001.91 | 992.31 | 983.56 | 975.64 | 33.37 | 20.8 | 13.69 | 9.4
x1 = 0.8001 | 1016.76 | 1007.51 | 999.13 | 991.3 | 49.36 | 29.56 | 18.85 | 12.44
x1 = 0.9005 | 1029.58 | 1020.96 | 1012.93 | 1005.16 | 72.94 | 41.84 | 25.38 | 16.52
x1 = 1 | 1040.5 | 1032.6 | 1024.76 | 1017.12 | 103.04 | 57.28 | 33.94 | 21.31

CN(CCO)CCO [N-methyldiethanolamine] + NCCO
Conditions | mass density, 293.15 K [kg/m3] | mass density, 303.15 K [kg/m3] | mass density, 313.15 K [kg/m3] | mass density, 323.15 K [kg/m3] | viscosity, 293.15 K [mPa·s] | viscosity, 303.15 K [mPa·s] | viscosity, 313.15 K [mPa·s] | viscosity, 323.15 K [mPa·s]
x1 = 0.1001 | 1021.71 | 1013.23 | 1005.13 | 997.1 | 32.9 | 19.84 | 12.83 | 8.4
x1 = 0.2006 | 1025.79 | 1017.39 | 1009.3 | 1001.26 | 43.27 | 25.18 | 15.97 | 10.48
x1 = 0.3 | 1029.07 | 1020.72 | 1012.66 | 1004.69 | 52.78 | 30.53 | 18.92 | 12.49
x1 = 0.3998 | 1031.69 | 1023.42 | 1015.36 | 1007.45 | 62.64 | 35.8 | 21.86 | 14.3
x1 = 0.4994 | 1033.82 | 1025.62 | 1017.61 | 1009.72 | 71.4 | 40.6 | 24.53 | 15.83
x1 = 0.5997 | 1035.58 | 1027.46 | 1019.48 | 1011.68 | 79.47 | 45.11 | 26.97 | 17.35
x1 = 0.6977 | 1037.09 | 1029.04 | 1021.11 | 1013.34 | 86.28 | 48.61 | 29.05 | 18.6
x1 = 0.7996 | 1038.43 | 1030.43 | 1022.52 | 1014.79 | 92.9 | 52.06 | 30.87 | 19.64
x1 = 0.8995 | 1039.57 | 1031.61 | 1023.72 | 1016.04 | 98.21 | 54.8 | 32.88 | 20.56
x1 = 1 | 1040.5 | 1032.6 | 1024.76 | 1017.12 | 103.04 | 57.28 | 33.94 | 21.31
